Assay results published in ChEMBL document CHEMBL5576123, “Interaction of Cephalosporins with Human Serum Albumin: A Structural Study” (J Med Chem, 2024).
Converted amounts (≈) assume the structure as drawn. The source made the active and inactive calls. No cut-off for these calls is given here.

Assays:
[1] = Protein binding in plasma (unknown origin); type: ADME, cell-free; settings: read-out: PPB (converted)
[2] = test system: Escherichia coli; test: Antibacterial activity against Escherichia coli ATCC 25922 assessed as inhibition of bacterial growth at 0.6 mM incubated for 24 hrs by broth microdilution method; type: functional, organism-based
[3] = test system: Escherichia coli; test: Ratio of MIC>90 against Escherichia coli ATCC 25922 in presence of HSA to MIC>90 against Escherichia coli ATCC 25922 in absence of HSA; type: functional
[4] = test system: Escherichia coli; test: Antibacterial activity against Escherichia coli ATCC 25922 assessed as inhibition of bacterial growth incubated for 24 hrs in presence of HSA by broth microdilution method; type: functional
[5] = test system: Escherichia coli; test: Antibacterial activity against Escherichia coli ATCC 25922 assessed as inhibition of bacterial growth incubated for 24 hrs in absence of HSA by broth microdilution method; type: functional
[6] = test system: Escherichia coli; test: Antibacterial activity against Escherichia coli ATCC 25922 assessed as inhibition of bacterial growth at 0 to 8 ug/ml incubated for 24 hrs in presence of HSA by broth microdilution method; type: functional, organism-based; settings: dose 0-8 µg/ml
[7] = test system: Escherichia coli; test: Antibacterial activity against Escherichia coli ATCC 25922 assessed as inhibition of bacterial growth incubated for 24 hrs in presence of warfarin by broth microdilution method; type: functional
[8] = target: T1, Albumin (Homo sapiens, UniProt P02768); test: Binding affinity to human serum albumin incubated for 18 hrs by equilibrium dialysis method; type: ADME; settings: isolated protein
[9] = target: T1, Albumin; test: Binding affinity to human serum albumin incubated for 18 hrs in presence of 40 uM bicalutamide by equilibrium dialysis method; type: ADME; settings: isolated protein
[10] = target: T1, Albumin; test: Binding affinity to human serum albumin incubated for 18 hrs in presence of 80 uM bicalutamide by equilibrium dialysis method; type: ADME; settings: isolated protein

T1 sequence (P02768 whole entry): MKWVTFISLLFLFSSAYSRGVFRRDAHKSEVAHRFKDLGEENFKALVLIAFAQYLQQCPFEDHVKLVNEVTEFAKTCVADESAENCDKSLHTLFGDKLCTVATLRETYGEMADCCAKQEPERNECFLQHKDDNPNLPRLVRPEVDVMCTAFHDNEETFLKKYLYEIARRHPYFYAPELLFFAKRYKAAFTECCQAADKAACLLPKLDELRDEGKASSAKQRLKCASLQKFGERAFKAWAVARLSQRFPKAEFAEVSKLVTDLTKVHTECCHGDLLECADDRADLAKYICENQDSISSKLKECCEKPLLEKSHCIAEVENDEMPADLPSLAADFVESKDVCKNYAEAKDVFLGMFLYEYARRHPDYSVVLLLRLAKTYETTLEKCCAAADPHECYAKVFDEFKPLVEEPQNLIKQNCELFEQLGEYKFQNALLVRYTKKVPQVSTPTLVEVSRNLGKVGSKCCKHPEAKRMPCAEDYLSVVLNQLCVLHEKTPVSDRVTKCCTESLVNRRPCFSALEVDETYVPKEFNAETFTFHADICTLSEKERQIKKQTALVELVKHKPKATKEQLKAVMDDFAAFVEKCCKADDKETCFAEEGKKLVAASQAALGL

## CO/N=C(\C(=O)N[C@@H]1C(=O)N2C(C(=O)[O-])=C(C[N+]3(C)CCCC3)CS[C@H]12)c1csc(N)n1
[1]
  fraction unbound: 0.8

## C=CC1=C(C(=O)O)N2C(=O)[C@@H](NC(=O)/C(=N\O)c3csc(N)n3)[C@H]2SC1
[1]
  fraction unbound: 0.3

## CC(O)(CS(=O)(=O)c1ccc(F)cc1)C(=O)Nc1ccc(C#N)c(C(F)(F)F)c1 (centres undefined)
[2]
  Activity: inactive

## CCCCC1C(=O)N(c2ccccc2)N(c2ccccc2)C1=O
[2]
  Activity: inactive

## CN1C(=O)CN=C(c2ccccc2)c2cc(Cl)ccc21
[2]
  Activity: inactive

## N[C@@H](C(=O)N[C@@H]1C(=O)N2C(C(=O)O)=C(Cl)CS[C@H]12)c1ccccc1 [CEFACLOR ANHYDROUS]
[1]
  fraction unbound: 0.75

## CC1=C(C(=O)O)N2C(=O)[C@@H](NC(=O)[C@H](N)c3ccc(O)cc3)[C@H]2SC1 [CEFADROXIL]
[1]
  fraction unbound: 0.8

## Cc1nnc(SCC2=C(C(=O)O)N3C(=O)[C@@H](NC(=O)Cn4cnnn4)[C@H]3SC2)s1 [CEFAZOLIN]
[3]
  Ratio: 2
[4]
  MIC90: 4 µg/mL
[1]
  fraction unbound: 0.2
[5]
  MIC90: 2 µg/mL (≈ 4.4 µM)

## CO/N=C(\C(=O)N[C@@H]1C(=O)N2C(C(=O)O)=C(/C=C\c3scnc3C)CS[C@H]12)c1csc(N)n1 [CEFDITOREN]
[1]
  fraction unbound: 0.12

## C=CC1=C(C(=O)O)N2C(=O)[C@@H](NC(=O)/C(=N\OCC(=O)O)c3csc(N)n3)[C@H]2SC1 [CEFIXIME]
[1]
  fraction unbound: 0.35

## CO/N=C(\C(=O)N[C@@H]1C(=O)N2C(C(=O)O)=C(COC(C)=O)CS[C@H]12)c1csc(N)n1 [CEFOTAXIME]
[1]
  fraction unbound: 0.5

## CO[C@@]1(NC(=O)C2SC(=C(C(N)=O)C(=O)O)S2)C(=O)N2C(C(=O)O)=C(CSc3nnnn3C)CS[C@@H]21 (some centres undefined) [CEFOTETAN]
[6]
  Activity: inactive
[1]
  fraction unbound: 0.12

## CO[C@@]1(NC(=O)Cc2cccs2)C(=O)N2C(C(=O)O)=C(COC(N)=O)CS[C@@H]21 [CEFOXITIN]
[1]
  fraction unbound: 0.21

## CO/N=C(\C(=O)N[C@@H]1C(=O)N2C(C(=O)[O-])=C(C[n+]3cccc4c3CCC4)CS[C@H]12)c1csc(N)n1 [CEFPIROME]
[1]
  fraction unbound: 0.9

## COCC1=C(C(=O)O)N2C(=O)[C@@H](NC(=O)/C(=N\OC)c3csc(N)n3)[C@H]2SC1 [CEFPODOXIME]
[1]
  fraction unbound: 0.17

## CC=CC1=C(C(=O)O)N2C(=O)[C@@H](NC(=O)[C@H](N)c3ccc(O)cc3)[C@H]2SC1 [CEFPROZIL]
[1]
  fraction unbound: 0.64

## CCO/N=C(\C(=O)N[C@@H]1C(=O)N2C(C(=O)[O-])=C(Sc3nc(-c4cc[n+](C)cc4)cs3)CS[C@H]12)c1nsc(N)n1 [CEFTAROLINE]
[1]
  fraction unbound: 0.8

## CC(C)(O/N=C(\C(=O)N[C@@H]1C(=O)N2C(C(=O)[O-])=C(C[n+]3ccccc3)CS[C@H]12)c1csc(N)n1)C(=O)O [CEFTAZIDIME]
[1]
  fraction unbound: 0.91

## Nc1nc(/C(=C/CC(=O)O)C(=O)N[C@@H]2C(=O)N3C(C(=O)O)=CCS[C@H]23)cs1 [CEFTIBUTEN]
[1]
  fraction unbound: 0.35

## CO/N=C(\C(=O)N[C@@H]1C(=O)N2C(C(=O)O)=CCS[C@H]12)c1csc(N)n1 [CEFTIZOXIME]
[1]
  fraction unbound: 0.7

## Nc1nc(/C(=N/O)C(=O)N[C@@H]2C(=O)N3C(C(=O)O)=C(/C=C4\CCN([C@@H]5CCNC5)C4=O)CS[C@H]23)ns1 [CEFTOBIPROLE]
[1]
  fraction unbound: 0.84

## Cn1c(N)c(NC(=O)NCCN)c[n+]1CC1=C(C(=O)O)N2C(=O)[C@@H](NC(=O)/C(=N\OC(C)(C)C(=O)[O-])c3nsc(N)n3)[C@H]2SC1 [CEFTOLOZANE]
[1]
  fraction unbound: 0.8

## CO/N=C(\C(=O)N[C@@H]1C(=O)N2C(C(=O)O)=C(CSc3nc(=O)c(=O)[nH]n3C)CS[C@H]12)c1csc(N)n1 [CEFTRIAXONE]
[7]
  MIC90: 0.25 µg/mL
[8]
  K: 8.5 10^4/M
[9]
  K: 5.01 10^4/M
[4]
  MIC90: 1 µg/mL
[10]
  K: 1.3 10^4/M
[1]
  fraction unbound: 0.05
[5]
  MIC90: ≤ 0.12 µg/mL

## CO/N=C(\C(=O)N[C@@H]1C(=O)N2C(C(=O)O)=C(COC(N)=O)CS[C@H]12)c1ccco1 [CEFUROXIME]
[1]
  fraction unbound: 0.5
